Measured values taken from US20050186144A1, “Treatment methods” (SCHERING CORPORATION, priority 2004, published 2005).

How the values were obtained:
[1] = Phase-2 double-blind, randomized, placebo-controlled study in acute rhinosinusitis; assay type: in vivo, human; conditions: Amoxicillin 500 mg three times a day
Experimental: A Phase-2, dose-ranging, double-blind, double-dummy, randomized, multi-center, multi-national study with 4 parallel groups was carried out. There were three treatment regimens: Mometasone Furoate Nasal Spray 200 μg was administered once a day; Mometasone Furoate Nasal Spray 200 μg also was administered twice a day; Amoxicillin 500 mg was administered three times a day. All three were administered against placebo. The regimens were administered to subjects 12 years of age or older with acute rhinosinusitis that was clinically diagnosed with symptoms present for 7 days or more and 28 days or less. Subjects with a major symptom score (sum of symptoms—facial pain, rhinorrhea, post nasal drip, sinus headache, nasal congestion—each scored 0—none-to 3—severe) greater than or equal to 5 and less than or equal to 12 at baseline with less than or equal to 3 symptoms scored severe were included. Subjects with a bacterial rhinosinusitis suspected on the presence of fever greater than or equal to 101° F./38.3° C., persistent severe unilateral facial pain/tooth pain, orbital or peri-orbital facial swelling, dental involvement; and/or worsening symptoms after initial improvement were excluded from the study. The primary efficacy variable of the study was the actual major symptom score (averaged daily for AM and PM assessments over 15 days of treatment). […]

[2] = Systemic effect of intranasal mometasone furoate (HPLC metabolite profiling of plasma radioactivity, first-pass metabolism, cortisol secretion); assay type: in vivo; conditions: administered intranasally

CC1(C)S[C@@H]2[C@H](NC(=O)[C@H](N)c3ccc(O)cc3)C(=O)N2[C@H]1C(=O)O [Amoxicillin]
major symptom score, efficacy vs. placebo ([1]; p=0.275): not different from placebo
recurrence rate ([1]; follow-up phase (14 days), MFNS 200 μg twice a day): 8%

C[C@@H]1C[C@H]2[C@@H]3CCC4=CC(=O)C=C[C@]4(C)[C@@]3(Cl)[C@@H](O)C[C@]2(C)[C@@]1(OC(=O)c1ccco1)C(=O)CCl [mometasone furoate, Mometasone furoate]
first-pass metabolism in the liver [2]: > 98%
reduction in cortisol secretion levels [2]: minimal reduction
